Patent US9309187B2, “EP2 receptor agonists” (TAKEDA GMBH, priority 2012, dated 2016)

How the values were obtained:
[1] = test system: normal human lung fibroblasts (NHLF), TGFβ-induced alpha-smooth muscle actin; experiment: Inhibition of the myofibroblast transition of normal human lung fibroblasts (NHLF); type: cell-based; conditions: Fibroblast; 1 ng/mL human TGFβ, 24 h, alpha-smooth muscle actin western blot; read-out: inhibition of NHLF myofibroblast transition pIC50 (-log IC50) (converted)
Procedure: Method for Determination of the Inhibition of the Myofibroblast Transition of Normal Human Lung Fibroblasts (NHLF)
200,000 NHLF-cells were seeded into each well of six-well cell culture plates in full-medium and starved for 24 h after initial 24 h incubation at 37° C., 5% CO2 and 95% humidity. Before inducing fibroblast-to-myofibroblast conversion by adding 1 ng/mL human TGFβ serial dilution of test compound was administered. After 24 h the cells were collected and processed to lysates as described subsequently.
Cells were washed, twice in PBS, trypsinated and centrifuged at 500×g for 10 min. Afterwards the cell pellet was resuspended in 150 microL freshly prepared lysis buffer (50 mM Hepes, pH 7.5, 150 mM NaCl, 1.5 mM MgCl2, 10% […], 1% Triton X-100, 0.5% Desoxycholat, 0.2% SDS, 1 mM EGTA (ethylene glycol tetraacetic acid), 100 mM NaF, 10 mM Na4P2O7, 1 mM Na-Vanadat, 1 mM PMSF and 50 U/mL Benzonase (Merck KGaA, Darmstadt, Germany), one Phosphatase Inhibitor Cocktail tablet (Complete Mini from Roche Diagnostics, Mannheim, Germany) per 10 ml buffer and stored at −80° C. for further use. Protein concentration was determined following instructions of the BCA Protein Assay (Pierce Biotechnology, Rockford, Ill., USA). Photometric measurements were performed with the microplate reader Sunrise from Tecan Group Ltd., (Männedorf, Switzerland). 6 μg of protein of the different samples were separated on a 10% SDS (Sodium Dodecyl Sulfate) discontinuous polyacrylamide gel electrophoresis. Thereafter, proteins were blotted from the gel onto a nitrocellulose transfer membrane for 2 h at 400 mA in a wet-blot-chamber. Thereafter the membrane was blocked in 5% milkpowder in PBS (Phosphate Buffered Saline) containing 0.1% Tween 20 at 4° C. overnight. Subsequently the membrane was hybridized for 4 h with the primary anti-Alpha-smooth muscle actin antibody (1:2,000 in 5% milkpowder in PBS), washed three times in PBS containing 0.1% Tween 20. This was followed by incubation with the secondary horseradish-coupled goat anti-mouse IgG detection-antibody (1:10,000 in 5% milkpowder in PBS) for 2 h. After final washing with PBS containing 0.1% Tween 20 (three times for 10 min each) the blot was developed by using a chemiluminescence detection system according to the manufacturer instructions and a luminescent image analyzer (Fuji LAS 1000 Pro).
(§1) The numbers of the compounds correspond to the examples numbers.

[2] = test system: normal human lung fibroblasts (NHLF); experiment: Inhibition of the proliferation of normal human lung fibroblasts (NHLF); type: cell-based; conditions: Fibroblast, IL1β (50 pg/mL) and bFGF (10 ng/mL) for 36 h, methyl-3H thymidine incorporation, read-out: inhibition of NHLF proliferation pIC50 (-log IC50) (converted)
Procedure: Method for Determination of the Inhibition of the Proliferation of Normal Human Lung Fibroblasts (NHLF)
16,500 NHLF-cells were seeded in each well of 24-well cell culture plates and were subsequently cultivated for 3.5 days. Thereafter cell culture medium was replaced by non-serum containing medium and cells were starved for 24 h. Subsequently a serial dilution of test compound was added and cells were stimulated with IL1β (Interleukine 1 beta) (50 pg/mL) and bFGF (basic Fibroblast Growth Factor) (10 ng/mL) for 36 h. For DNA-synthesis (Desoxyribonucleic Acid-synthesis) measurement methyl-^3H thymidine was added to the cells for the last 7 h of the 36 h incubation period. Thereafter the radioactive labeled cells were processed for measurement of the incorporated radioactivity as a marker for DNA-synthesis and thus proliferation. For that purpose the cell culture supernatants were removed, adherent cells washed once with ice-cold PBS and fixed in ice-cold 10% (w/v) trichloroacetic acid (TCA) for 30 min. Thereafter TCA was discarded and the DNA of the fixed cells hydrolyzed by administering 0.2 N NaOH. The radioactivity containing NaOH was then transferred into scintillation vials, scintillation liquid added and radioactivity was counted (L56500, Beckman Counter). Test compounds were dissolved in DMSO to a stock concentration of 10 mM. After administration of the compound to the cell cultures the final DMSO concentration was 0.1%. Inhibition of proliferation by the various concentrations of test compound was calculated related to 0.1% DMSO-treated control cells.
as §1

Row | Structure (SMILES) | IC50 [1] [nM] | IC50 [2] [nM]
1 | O=C(O)/C=C/c1cccc(NC(=O)c2cc(-c3ccccc3)cc3ccccc23)c1 [Example 1, (2E)-3-(3-{[(3-phenylnaphthalen-1-yl)carbonyl]amino}phenyl)prop-2-enoic acid] | 0.316 to 3.16 | 1.58 to 15.8
2 | O=C(O)/C=C/c1ccc(F)c(NC(=O)c2cc(-c3ccccc3)cc3ccccc23)c1 [Example 2, (2E)-3-(4-fluoro-3-{[(3-phenylnaphthalen-1-yl)carbonyl]amino}phenyl)prop-2-enoic acid] | 0.316 to 3.16 | 1.58 to 15.8
3 | O=C(O)/C=C/c1ccc(F)c(NC(=O)c2cc(-c3ccccc3F)cc3ccccc23)c1 [Example 9, (2E)-3-{3-[({3-[2-fluorophenyl]naphthalen-1-yl}carbonyl)amino]-4fluorophenyl}prop-2-enoic acid] | 0.316 to 3.16 | 1.58 to 15.8
4 | O=C(O)/C=C/c1ccc(F)c(NC(=O)c2cc(-c3cccc(F)c3)cc3ccccc23)c1 [Example 10, (2E)-3-{3-[({3-[3-fluorophenyl]naphthalen-1-yl}carbonyl)amino]-4fluorophenyl}prop-2-enoic acid] | 0.316 to 3.16 | 1.58 to 15.8
